Earlier results in US10294264B2, “Oxysterol-therapeutic agent derivative for bone healing” (Warsaw Orthopedic, Inc., priority 2017, dated 2019).
Where two headings read alike, the source gives them in different places.

How the values were obtained:
spine fusion model [1] = settings: rabbit spine fusion model
osteoprogenitor cells = settings: in vitro
spine fusion model [2] = settings: rat spine fusion model
Mesenchymal stem cells = settings: mesenchymal stem cells treated with compound

CCCCCC[C@](C)(O)[C@H]1CC[C@H]2[C@@H]3C[C@H](O)[C@H]4C[C@@H](O)CC[C@]4(C)[C@H]3CC[C@@]21C [OXY133, (3S,5S,6S,8R,9S,10R,13S,14S,17S)-17-((S)-2-hydroxyoctan-2-yl)-10,13-dimethylhexadecahydro-1H-cyclopenta[a]phenanthrene-3,6-diol]
bone formation in vivo (spine fusion model [1]): robust bone formation | osteogenic differentiation of osteoprogenitor cells (osteoprogenitor cells): induces osteogenic differentiation | bone formation in vivo (spine fusion model [2]): robust bone formation | osteoblast differentiation (Mesenchymal stem cells): increased osteoblast differentiation
